This passage reports IC50 results from patent publication US7691841B2, “Azetidine derivatives as CCR-3 receptor antagonist” (Novartis AG, priority 2004, dated 2010).

The assay deals with T1, human CCR-3 (Homo sapiens, UniProt P51677).
T1 construct: expressed in transfected cells; host or cells: rat basophil leukaemia (RBL-2H3) cells, membranes
T1 sequence (P51677 1-355): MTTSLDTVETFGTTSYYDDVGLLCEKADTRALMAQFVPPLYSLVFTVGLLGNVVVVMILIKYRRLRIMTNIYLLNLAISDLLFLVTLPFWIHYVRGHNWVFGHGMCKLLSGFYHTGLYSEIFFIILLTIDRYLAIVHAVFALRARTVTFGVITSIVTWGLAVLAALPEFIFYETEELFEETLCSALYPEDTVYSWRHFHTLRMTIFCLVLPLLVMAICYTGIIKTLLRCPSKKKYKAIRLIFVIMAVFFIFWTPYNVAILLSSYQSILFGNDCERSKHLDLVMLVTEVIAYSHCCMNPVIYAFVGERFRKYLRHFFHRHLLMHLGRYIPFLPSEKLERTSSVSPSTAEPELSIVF
The assay can be described thus: binding of [125I]-human eotaxin to human CCR-3 (SPA assay). Conditions: membranes of RBL-2H3 cells stably expressing CCR3; 50 pM [125I]-human eotaxin; 4 hours at room temperature; read-out: IC50 (concentration of test compound at which 50% inhibition of eotaxin binding occurs). The protocol:
Compounds of formula I and their pharmaceutically acceptable salts are useful as pharmaceuticals. In particular, they inhibit human chemokine receptor CCR-3. The effect of compounds of the formula I, i.e. agents of the invention, on the binding of human eotaxin to human CCR-3 is determined by the following assay:
Recombinant cells expressing human CCR-3 are captured by wheatgerm agglutinin (WGA) polyvinyltoluidene (PVT) SPA beads (available from Marshal), through a specific interaction between the WGA and carbohydrate residues of glycoproteins on the surface of the cells. [^125I]-human eotaxin (available from Amersham) binds specifically to CCR-3 receptors bringing the [^125I]-human eotaxin in close proximity to the SPA beads. Emitted â-particles from the [^125I]-human eotaxin excite, by its proximity, the fluorophore in the beads and produce light.
Preparation of Assay Buffer: 5.96 g HEPES and 7.0 g sodium chloride are dissolved in distilled water and 1 M aqueous CaCl2 (1 ml) and 1M aqueous MgCl2 (5 ml) are added. The pH is adjusted to 7.6 with NaOH and the solution made to a final volume of 1 l using distilled water. 5 g bovine serum albumin and 0.1 g sodium azide are then dissolved in the solution and the resulting buffer stored at 4° C. A COMPLETE™ protease inhibitor cocktail tablet (available from Boehringer) is added per 50 ml of the buffer on the day of use.
Preparation of Homogenisation Buffer: Tris-base (2.42 g) is dissolved in distilled water, the pH of the solution is adjusted to 7.6 with hydrochloric acid and the solution is diluted with distilled water to a final volume of 1 l. The resulting buffer is stored at 4° C. A COMPLETE™ protease inhibitor cocktail tablet is added per 50 ml of the buffer on the day of use. […]
The assay is performed in a final volume of 250 μl per well of an OPTIPLATE™ microplate (ex Canberra Packard). […] The resulting scintillations are counted using a Canberra Packard TopCount, each well being counted for 1 minute. […]

On to `O=C(CNC(=O)c1ccc(Cl)cc1)NCC1CN(Cc2ccc(Cl)c(Cl)c2)C1` [Example 5], for which the IC50 amounted to 297 nM.
Consider `Cc1cc(C(=O)NCC(=O)NCC2CN(Cc3ccc(Cl)c(Cl)c3)C2)c(C)n1Cc1ccncc1` [Example 7], for which the IC50 was found to be 420 nM.
As for `CCOc1ccc2nc(SCC(=O)NCC3CN(Cc4ccc(Cl)c(Cl)c4)C3)sc2c1` [Example 8, N-[1-(3,4-Dichloro-benzyl)-azetidin-3-yl-methyl]-2-(6-ethoxy-benzothiazol-2-ylsulfanyl)-acetamide], the IC50 came out at 198 nM.
